Results reported in PubChem BioAssay (NCI).
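Method: 48-hour compound exposure of cells in 96-well plates, five concentrations, linear interpolation of endpoints. The concentration for full growth arrest is given as TGI.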

What was measured:
Experiment in all cases: growth of human tumour cells (NCI), 48 h
[1] = system: 786-0 renal
[2] = system: A498 renal
[3] = system: A549 NSCLC
[4] = system: ACHN renal
[5] = system: CAKI-1 renal
[6] = system: CCRF-CEM leukemia
[7] = system: COLO 205 colon
[8] = system: DMS 114 small cell lung
[9] = system: EKVX NSCLC
[10] = system: HCC-2998 colon
[11] = system: HCT-116 colon
[12] = system: HCT-15 colon
[13] = system: HL-60(TB) leukemia
[14] = system: HOP-18 NSCLC
[15] = system: HOP-62 NSCLC
[16] = system: HOP-92 NSCLC
[17] = system: HT29 colon
[18] = system: IGROV1 ovarian
[19] = system: K-562 leukemia
[20] = system: KM12 colon
[21] = system: KM20L2 colon
[22] = system: LXFL 529 NSCLC
[23] = system: M14 melanoma
[24] = system: M19-MEL melanoma
[25] = system: MALME-3M melanoma
[26] = system: MOLT-4 leukemia
[27] = system: NCI-H226 lung
[28] = system: NCI-H460 lung
[29] = system: OVCAR-3 ovarian
[30] = system: OVCAR-4 ovarian
[31] = system: OVCAR-8 ovarian
[32] = system: RPMI-8226 leukemia
[33] = system: RXF 393 renal
[34] = system: SF-295 CNS
[35] = system: SF-539 CNS
[36] = system: SK-MEL-2 melanoma
[37] = system: SK-MEL-28 melanoma
[38] = system: SN12C renal
[39] = system: SNB-19 CNS
[40] = system: SNB-75 CNS
[41] = system: SNB-78 CNS
[42] = system: SR leukemia
[43] = system: SW-620 colon
[44] = system: TK-10 renal
[45] = system: U251 CNS
[46] = system: UACC-62 melanoma
[47] = system: UO-31 renal
[48] = system: XF 498 CNS
[49] = system: DLD-1 colon
[50] = system: LOX IMVI melanoma
[51] = system: NCI-H23 lung
[52] = system: NCI-H522 lung
[53] = system: OVCAR-5 ovarian
[54] = system: SF-268 CNS
[55] = system: SK-OV-3 ovarian
[56] = system: UACC-257 melanoma

CCC12C=CCN3CCC4(c5cc(C6(C(=O)OC)CCCCCc7c6[nH]c6ccccc76)c(OC)cc5N(C)C4C(O)(C(=O)OC)C1OC(C)=O)C32 (stereo unspecified)
TGI [1]: 4.89 µM | TGI [2]: 7.39 µM | TGI [3]: 11.7 µM | TGI [4]: 3.3 µM | TGI [5]: 7.46 µM | TGI [6]: 5.49 µM | TGI [7]: 8.85 µM | TGI [8]: 7.09 µM | TGI [9]: 14 µM | TGI [10]: 3.97 µM | TGI [11]: 13 µM | TGI [12]: 5.29 µM | TGI [13]: 5.81 µM | TGI [14]: 4.86 µM | TGI [15]: 13.2 µM | TGI [16]: 4.76 µM | TGI [17]: 2.06 µM | TGI [18]: 5.23 µM | TGI [19]: > 100 µM | TGI [20]: 5.93 µM | TGI [21]: 4.76 µM | TGI [22]: 5.54 µM | TGI [23]: 6.75 µM | TGI [24]: 6.93 µM | TGI [25]: 3.84 µM | TGI [26]: 9.19 µM | TGI [27]: 6.65 µM | TGI [28]: 9.92 µM | TGI [29]: 15.5 µM | TGI [30]: 12.3 µM | TGI [31]: 17.2 µM | TGI [32]: 6.97 µM | TGI [33]: 3.52 µM | TGI [34]: 5.3 µM | TGI [35]: 4.63 µM | TGI [36]: 3.17 µM | TGI [37]: 4.35 µM | TGI [38]: 12.8 µM | TGI [39]: 12.1 µM | TGI [40]: 7.8 µM | TGI [41]: 9.48 µM | TGI [42]: 7.65 µM | TGI [43]: 17.5 µM | TGI [44]: 5.5 µM | TGI [45]: 5.68 µM | TGI [46]: 3.43 µM | TGI [47]: 7.25 µM | TGI [48]: 6.44 µM

COC(=O)C(=O)C(C(=O)C(=O)Nc1ccc(OC)cc1[N+](=O)[O-])c1nc2ccc([N+](=O)[O-])cc2[nH]c1=O (stereo unspecified)
TGI [1]: > 100 µM | TGI [2]: > 100 µM | TGI [3]: > 100 µM | TGI [4]: > 100 µM | TGI [5]: > 100 µM | TGI [6]: > 100 µM | TGI [7]: > 100 µM | TGI [49]: > 100 µM | TGI [8]: > 100 µM | TGI [9]: > 100 µM | TGI [10]: > 100 µM | TGI [11]: > 100 µM | TGI [12]: > 100 µM | TGI [13]: > 100 µM | TGI [14]: > 100 µM | TGI [15]: > 100 µM | TGI [16]: > 100 µM | TGI [17]: > 100 µM | TGI [18]: > 100 µM | TGI [19]: > 100 µM | TGI [20]: > 100 µM | TGI [21]: > 100 µM | TGI [50]: > 100 µM | TGI [22]: > 100 µM | TGI [23]: > 100 µM | TGI [24]: > 100 µM | TGI [25]: > 100 µM | TGI [26]: > 100 µM | TGI [27]: > 100 µM | TGI [51]: > 100 µM | TGI [28]: > 100 µM | TGI [52]: > 100 µM | TGI [29]: > 100 µM | TGI [30]: > 100 µM | TGI [53]: > 100 µM | TGI [31]: > 100 µM | TGI [32]: > 100 µM | TGI [33]: > 100 µM | TGI [54]: > 100 µM | TGI [34]: > 100 µM | TGI [55]: > 100 µM | TGI [38]: > 100 µM | TGI [39]: > 100 µM | TGI [40]: > 100 µM | TGI [41]: > 100 µM | TGI [42]: > 100 µM | TGI [43]: > 100 µM | TGI [44]: > 100 µM | TGI [45]: > 100 µM | TGI [56]: > 100 µM | TGI [46]: > 100 µM | TGI [47]: > 100 µM | TGI [48]: > 100 µM
